Here are results for 7 compounds from paper PMC8151276, “An Integrated Approach toward NanoBRET Tracers for Analysis of GPCR Ligand Engagement” (Molecules, 2021).

Common to all, as to type: binding
For assay [1], the target named is T1, F2RL2 (Homo sapiens, UniProt O00254).
T1 construct: purchased Promega (in-house HiBiT-GPCR construct library, NanoBRET)
T1 sequence (O00254 22-374): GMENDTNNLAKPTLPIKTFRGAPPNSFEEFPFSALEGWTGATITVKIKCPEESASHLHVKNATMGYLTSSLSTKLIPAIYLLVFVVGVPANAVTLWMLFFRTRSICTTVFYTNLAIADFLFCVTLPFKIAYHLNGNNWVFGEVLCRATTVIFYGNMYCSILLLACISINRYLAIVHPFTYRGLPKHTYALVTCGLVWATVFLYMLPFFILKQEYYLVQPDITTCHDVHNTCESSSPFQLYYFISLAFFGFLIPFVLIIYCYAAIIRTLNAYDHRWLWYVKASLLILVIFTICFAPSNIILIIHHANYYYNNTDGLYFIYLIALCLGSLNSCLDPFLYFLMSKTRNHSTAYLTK
The assay is described as follows: NanoBRET screen HiBiT-F2RL2 in HEK293. As for the experimental part:
(§1) Each tracer candidate was screened across the entire library of HiBiT-GPCR constructs using NanoBRET as the detection modality. As depicted in Figure 4A, the specificity of interactions was evaluated through decrease in BRET due to competitive displacement of a bound tracer by excess parental compound. Each tracer was analyzed for binding to each HiBiT-GPCR fusion in the absence and in the presence of competing parental compound. Briefly, HEK293 cells were transfected with HiBiT-GPCR constructs diluted into promoterless DNA to reduce expression and maximize translocation to the cell surface. Each tracer candidate was then screened at concentrations of 1 μM and 0.1 μM across cells expressing these fusions. Cells were treated for 1.5 h with tracer either alone or in the presence of 20 μM competing parental compound (i.e., control). BRET was measured upon addition of purified LgBiT and subsequent complementation with HiBiT genetically fused to a GPCR. The specificity of interactions was assessed through a decrease in BRET signal due to competitive displacement of the bound tracer. To further gauge the robustness of these interactions, the fold response over the control (i.e., BRETtracer/BRETcontrol) was calculated. We chose a 1.5-fold response, which translates to ≥7-fold signal over noise as the minimal threshold required to score an interaction as positive. […]. Below we highlight the screening results obtained for our exemplary fluorescent tracers based on Clozapine, Amitriptyline and AZD1283.
(§2) HiBiT-GPCR DNA constructs were diluted in 10 mM Tris pH 8 to a final concentration of 0.01 μg/μL, arrayed in 96-well plates and stored at −20 °C. For transfection, HEK293 cells were suspended in Opti-MEM (without phenol red) supplemented with 2% fetal bovine serum (Seradigm) and 100 units/mL penicillin–streptomycin (Gibco) at a final concentration of 220,000 cells/mL and dispensed into white 96-well plates at 90 μL/well. Subsequent transfections and screens were carried using an Agilent Bravo Automated Liquid Handling Platform. First, the 96-well HiBiT DNA arrays were diluted 25-fold in Opti-MEM (without serum or phenol red) to a final concentration of 0.0004 μg/μL and 20 μL of the diluted DNAs were transferred into new 96-well plates. Next, promoterless carrier DNA (1 μg/μL) was diluted 25-fold (0.04 μg/μL) and then dispensed into the diluted arrays at 20 μL/well. Following brief mixing, Viafect transfection reagent (Promega) diluted 16-fold into Opti-MEM was dispensed into the plates at 40 μL/well. After mixing by pipetting, plates were incubated for 10 min on the pipetting station deck. The DNA-transfection reagent complexes were then added to plates containing cells. To facilitate the screen, 10 μL of DNA-transfection reagent complexes were added in duplicates to the top 4 and bottom 4 rows, resulting in two identical 48-well arrays per plate. Plates with transfected cells were incubated for 18–20 h at 37 °C/5% CO2. A screen of each tracer across the entire library using two different concentrations requires duplicate plates of transfected cells. Depending on the number of tracers being screened, transfections can be scaled up using the same ratios. The next day, for each tracer, four 20× screening solutions in tracer dilution buffer (Promega) were prepared: two duplicates at final concentration of 20 μM and two duplicates at a final concentration of 2 μM. A competing unmodified compound was added to one of each duplicate at a final concentration of 400 μM. The four resulting solutions were diluted 4-fold in Opti-MEM without serum or phenol red to generate 5× solutions (5 µM and 0.5 µM tracer +/− 100 μM competing compound). To screen the library, a BioTek MultiFlo FX liquid dispenser was used to dispense 22.5 µL of tracer solution to the top 4 rows and 22.5 µL tracer + competing compound solution to the 4 bottom rows. Plates were briefly mixed on an orbital shaker and incubated for 1.5 h at room temperature. […]
A general note: In BRET a luciferase serves as donor, and the signal depends on an acceptor being close.

The target in assay [2] is T2, HRH2 (Homo sapiens, UniProt P25021).
T2 construct: purchased Promega (in-house HiBiT-GPCR construct library, NanoBRET)
T2 sequence (P25021 whole entry): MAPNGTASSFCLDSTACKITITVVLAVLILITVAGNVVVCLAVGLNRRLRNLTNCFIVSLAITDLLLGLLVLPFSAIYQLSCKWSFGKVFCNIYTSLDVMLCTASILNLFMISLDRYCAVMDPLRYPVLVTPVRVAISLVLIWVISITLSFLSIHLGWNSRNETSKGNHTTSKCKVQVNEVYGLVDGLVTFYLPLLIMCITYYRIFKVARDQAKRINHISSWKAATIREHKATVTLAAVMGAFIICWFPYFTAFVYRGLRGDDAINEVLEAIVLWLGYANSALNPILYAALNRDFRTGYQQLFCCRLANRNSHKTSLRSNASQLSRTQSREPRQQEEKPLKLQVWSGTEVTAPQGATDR
The assay is described as follows: NanoBRET screen HiBiT-HRH2 in HEK293. The method, then: as §1, §2

For assay [3], the target named is T3, NPY1R (Homo sapiens, UniProt P25929).
T3 construct: purchased Promega (in-house HiBiT-GPCR construct library, NanoBRET)
T3 sequence (P25929 1-384): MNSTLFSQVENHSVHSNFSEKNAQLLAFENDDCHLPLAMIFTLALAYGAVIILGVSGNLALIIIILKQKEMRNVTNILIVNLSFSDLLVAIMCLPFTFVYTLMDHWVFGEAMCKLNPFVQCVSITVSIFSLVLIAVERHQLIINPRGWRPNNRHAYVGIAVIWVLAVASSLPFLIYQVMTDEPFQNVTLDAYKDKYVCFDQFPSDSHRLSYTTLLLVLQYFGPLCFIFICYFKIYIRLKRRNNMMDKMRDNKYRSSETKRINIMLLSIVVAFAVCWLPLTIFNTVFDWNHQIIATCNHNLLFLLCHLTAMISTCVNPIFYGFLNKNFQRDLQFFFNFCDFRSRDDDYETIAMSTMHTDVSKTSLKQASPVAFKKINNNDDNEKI
The assay can be described thus: NanoBRET screen HiBiT-NPY1R in HEK293. The method, then:
as §1, §2

Assay [4] addresses T4, CXCR1 (Homo sapiens, UniProt P25024).
T4 construct: purchased Promega (in-house HiBiT-GPCR construct library, NanoBRET)
T4 sequence (P25024 1-350): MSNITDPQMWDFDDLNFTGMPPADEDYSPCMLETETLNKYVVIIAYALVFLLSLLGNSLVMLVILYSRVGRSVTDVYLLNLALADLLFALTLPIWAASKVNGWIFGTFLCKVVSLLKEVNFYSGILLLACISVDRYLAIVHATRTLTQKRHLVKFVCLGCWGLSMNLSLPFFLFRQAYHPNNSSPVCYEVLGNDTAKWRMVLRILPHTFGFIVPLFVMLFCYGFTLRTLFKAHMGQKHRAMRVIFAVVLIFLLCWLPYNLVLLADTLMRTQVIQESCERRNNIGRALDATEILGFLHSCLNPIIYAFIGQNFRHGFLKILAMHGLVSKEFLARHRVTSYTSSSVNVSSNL
The assay is described as follows: NanoBRET screen HiBiT-CXCR1 in HEK293. As for the experimental part: as §1, §2

Assay [5] concerns the target T5, P2RY6 (Homo sapiens, UniProt Q15077).
T5 construct: purchased Promega (in-house HiBiT-GPCR construct library, NanoBRET)
The assay is described as follows: NanoBRET screen HiBiT-P2RY6 in HEK293. The method, then: as §1, §2

Molecules are shown by their SMILES.

T5 sequence (Q15077 whole entry): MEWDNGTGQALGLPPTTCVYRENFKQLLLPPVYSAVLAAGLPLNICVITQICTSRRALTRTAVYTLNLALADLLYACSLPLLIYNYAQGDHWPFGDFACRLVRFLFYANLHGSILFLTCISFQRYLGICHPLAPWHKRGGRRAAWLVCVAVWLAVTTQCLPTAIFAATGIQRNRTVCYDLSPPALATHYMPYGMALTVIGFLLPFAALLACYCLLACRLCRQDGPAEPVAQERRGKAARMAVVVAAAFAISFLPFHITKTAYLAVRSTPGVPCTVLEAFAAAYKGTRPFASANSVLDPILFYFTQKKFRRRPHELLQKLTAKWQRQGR

Take `CC(C)N(CC[C@H](c1ccccc1)c1cc(CCNC(=O)CCOCCOCCOCCOCCNC(=O)CCc2ccc3n2[B-](F)(F)[N+]2=C(c4ccc[nH]4)C=CC2=C3)ccc1O)C(C)C` [Tolterodine-2-NB590]: the “NanoBRET Fold Response” value in assay [1] (F2RL2, tracer 0.1μM) is given as 1.02; in assay [1] (F2RL2, tracer 1μM), 1.04; in assay [2] (HRH2, tracer 0.1μM), 1.06; in assay [2] (HRH2, tracer 1μM), 0.82; in assay [3] (NPY1R, tracer 0.1μM) it was 1.16; in assay [3] (NPY1R, tracer 1μM), 1.00. Also, the “NanoBRET Fold Response” value amounted to 1.27 in assay [4] (CXCR1, tracer 0.1μM); 1.06 in assay [4] (CXCR1, tracer 1μM); 1.06 in assay [5] (P2RY6, tracer 0.1μM); 0.98 in assay [5] (P2RY6, tracer 1μM).

On to `Cc1nc2n(c(=O)c1CCN1CCC(c3noc4cc(F)ccc34)CC1)CCCC2OC(=O)NCCOCCOCCOCCOCCNC(=O)CCc1ccc2n1[B-](F)(F)[N+]1=C(c3ccc[nH]3)C=CC1=C2` (stereo not shown) [Risperidone-2-NB590], for which the “NanoBRET Fold Response” value in assay [1] (F2RL2, tracer 0.1μM) is on record as 0.94; in assay [1] (F2RL2, tracer 1μM), 1.08; in assay [2] (HRH2, tracer 0.1μM) it was 1.05; in assay [2] (HRH2, tracer 1μM), 1.13; in assay [3] (NPY1R, tracer 0.1μM), 0.88; in assay [3] (NPY1R, tracer 1μM), 0.99. Also, the “NanoBRET Fold Response” value in assay [4] (CXCR1, tracer 0.1μM) is reported as 1.01; in assay [4] (CXCR1, tracer 1μM), 0.91; in assay [5] (P2RY6, tracer 0.1μM), 1.00; in assay [5] (P2RY6, tracer 1μM), 1.03.

As for `O=C(CCOCCOCCOCCOCCNC(=O)CCc1ccc2n1[B-](F)(F)[N+]1=C(c3ccc[nH]3)C=CC1=C2)NCCCN1CCN(C2=Nc3cc(Cl)ccc3Nc3ccccc32)CC1` [Clozapine-a-2-NB590], the “NanoBRET Fold Response” value is on record as 1.02 in assay [1] (F2RL2, 0.1μM tracer); 1.20 in assay [1] (F2RL2, 1μM tracer); 0.95 in assay [2] (HRH2, 0.1μM tracer); 0.89 in assay [2] (HRH2, 1μM tracer); 0.97 in assay [3] (NPY1R, 0.1μM tracer); 1.23 in assay [3] (NPY1R, 1μM tracer). In addition, the “NanoBRET Fold Response” value in assay [4] (CXCR1, 0.1μM tracer) was 0.99; in assay [4] (CXCR1, 1μM tracer) it was 0.94; in assay [5] (P2RY6, 0.1μM tracer), 1.02; in assay [5] (P2RY6, 1μM tracer), 0.92.

As for `COc1ccc2[nH]c(-c3ccc(CNC(=O)CCOCCOCCOCCOCCNC(=O)CCc4ccc5n4[B-](F)(F)[N+]4=C(c6ccc[nH]6)C=CC4=C5)cc3)c(CCNC(C)=O)c2n1` [AzomelatoninICO9-2-NB590], the “NanoBRET Fold Response” value in assay [1] (0.1μM tracer) was 0.86; in assay [1] (1μM tracer), 0.99; in assay [2] (0.1μM tracer) it was 1.11; in assay [2] (1μM tracer), 1.07; in assay [3] (0.1μM tracer), 1.15; in assay [3] (1μM tracer) it was 0.94. In addition, the “NanoBRET Fold Response” value in assay [4] (0.1μM tracer) is recorded as 1.06; in assay [4] (1μM tracer) it was 0.96; in assay [5] (0.1μM tracer), 1.40; in assay [5] (1μM tracer) it was 1.09.

Consider `CN1CCN(C2=Nc3cc(Cl)ccc3Nc3ccc(CNC(=O)CCOCCOCCOCCOCCNC(=O)CCc4ccc5n4[B-](F)(F)[N+]4=C(c6ccc[nH]6)C=CC4=C5)cc32)CC1` [Clozapine-b-2-NB590], for which the “NanoBRET Fold Response” value in assay [1] (F2RL2, 0.1μM tracer) stood at 1.01; in assay [1] (F2RL2, 1μM tracer), 1.02; in assay [2] (HRH2, 0.1μM tracer), 1.01; in assay [2] (HRH2, 1μM tracer) it was 0.97; in assay [3] (NPY1R, 0.1μM tracer) it was 1.00; in assay [3] (NPY1R, 1μM tracer), 1.03. The “NanoBRET Fold Response” value in assay [4] (CXCR1, 0.1μM tracer) came to 1.00; in assay [4] (CXCR1, 1μM tracer), 0.99; in assay [5] (P2RY6, 0.1μM tracer), 1.04; in assay [5] (P2RY6, 1μM tracer) it was 0.98.

In the case of `COc1ccccc1N1CCN(CCCCN2C(=O)c3ccc(CNC(=O)CCOCCNC(=O)c4ccc(CNC(=O)CCc5ccc6n5[B-](F)(F)[N+]5=C(c7ccc[nH]7)C=CC5=C6)cc4)cc3C2=O)CC1` [NAN-190-3-NB590], the “NanoBRET Fold Response” value in assay [1] (F2RL2, tracer 0.1μM) is reported as 1.10; in assay [1] (F2RL2, tracer 1μM) it was 0.95; in assay [2] (HRH2, tracer 0.1μM) it was 1.07; in assay [2] (HRH2, tracer 1μM) it was 1.08; in assay [3] (NPY1R, tracer 0.1μM) it was 0.88; in assay [3] (NPY1R, tracer 1μM), 0.94. The “NanoBRET Fold Response” value was 0.93 in assay [4] (CXCR1, tracer 0.1μM); 0.83 in assay [4] (CXCR1, tracer 1μM); 1.10 in assay [5] (P2RY6, tracer 0.1μM); 0.91 in assay [5] (P2RY6, tracer 1μM).

Regarding `N#CN=C(NCCCOc1cccc(CN2CCCCC2)c1)NCCNC(=O)CCOCCOCCOCCOCCNC(=O)CCc1ccc2n1[B-](F)(F)[N+]1=C(c3ccc[nH]3)C=CC1=C2` [Aminopotentidine-2-NB590], the “NanoBRET Fold Response” value in assay [1] (F2RL2, tracer 0.1μM) is given as 0.95; in assay [1] (F2RL2, tracer 1μM), 1.02; in assay [2] (HRH2, tracer 0.1μM), 5.51; in assay [2] (HRH2, tracer 1μM) it was 3.65; in assay [3] (NPY1R, tracer 0.1μM) it was 0.99; in assay [3] (NPY1R, tracer 1μM), 1.01. In addition, the “NanoBRET Fold Response” value came to 1.03 in assay [4] (CXCR1, tracer 0.1μM); 0.99 in assay [4] (CXCR1, tracer 1μM); 1.12 in assay [5] (P2RY6, tracer 0.1μM); 0.86 in assay [5] (P2RY6, tracer 1μM).
